Data on 19 compounds can be found in patent US20260049071A1, “PROTEIN TYROSINE KINASE INHIBITOR AND MEDICAL USE THEREOF” (BEYANG THERAPEUTICS CO., LTD., priority 2022, published 2026).

A value given as a limit tells only on which side of the number the result lay.

One series has as its target FLT1 (VEGFR1) (Homo sapiens (Human), UniProt P17948). Kind of series: Kinase inhibition, Mobility Shift Assay (VEGFR1). It is filed as biochemical. How it is done: (§1) This assay directly monitored the ability of compounds to inhibit kinase phosphorylation by measuring non-phosphorylated and phosphorylated substrates in kinase reactions by using Mobility Shift Assays/IMAP™ analysis.
(§2) Add the kinase and DTT to 1× kinase buffer to form a 2.5× kinase solution; transfer 10 μL of 2.5× kinase solution to a 384-well reaction plate and add 1× kinase buffer to negative control wells. Incubate the plate for 10 min at room temperature; add FAM-labeled peptides, MgCl2, ATP and other reagents to 1× kinase buffer to form a 2.5× substrate solution; transfer 10 μL of the above 2.5× substrate solution to the 384-well reaction plate; incubate the plate at 28° C. for different times, and add 25 μL of stop solution to the 384-well reaction plate to stop the reaction. Read the conversion ratio data on CaliperEZ Reader II. Convert conversion rates into inhibition ratio data.
(§3) “Min” indicates the readout of the control well without the addition of kinase; and “Max” indicates the readout of the control well with the addition of DMSO. Fit IC50 values with XLFit excel add-in version 5.4.0.8.
(§4) X indicates the log value of compound concentration, and Y indicates the inhibition ratio (% inhibition).

The next series addresses KDR (VEGFR2) (Homo sapiens (Human), UniProt P35968). The series can be described thus: Kinase inhibition, Mobility Shift Assay (VEGFR2). It is filed as biochemical. How it is done: as §1, §2, §3, §4
The test system of another series is melanin. The series can be described thus: Binding capacity of compounds to melanin. The series is classed as in vitro ADME. Particulars: Sepia officinalis (cuttlefish), melanin suspension (1 mg/mL); 1 mg/mL melanin suspension in PBS pH 7.4, 2 μM compound, 2 h at 37° C.; read-out: Fu % (percentage of free drug, not bound to melanin). The source says: Pigmented eye tissues contain melanin in intracellular melanosomes. Drugs bind to melanin to varying degrees, ranging from non-binding to extensive binding. Therefore, melanin binding is an important feature that affects drug delivery and biodistribution in the eye. The binding capacity of a compound to the melanin must be considered in the development of ophthalmic drugs.
Melanin was derived from the melanin of cuttlefish (Sepia officinalis) and was commercially available from Sigma Aldrich (St Louis, MO).
First, prepare 1 mg/mL melanin suspension with PBS (pH 7.4). As a washing step for the matrix, centrifuge the suspended particles for 5 min at 3000 rpm. Resuspend the resulting particles in a fresh PBS buffer, heat to 37° C. over continuous shaking and incubate it for 1 h. Accurately pipette 2 μL of the test stock solution (0.1 mM) into 98 μL of melanin suspension (1 mg/mL) to achieve a final incubation concentration of 2 μM. Similarly, accurately pipette 2 μL of the stock solution (0.1 mM) to 98 μL of PBS buffer (containing 0.1% BSA) as a blank control sample. Incubate the samples in a shaker (80-90 rpm) for 2 h at 37° C. Then, centrifuge the samples at room temperature. Pipette 50 μL of the supernatant and add 50 μL of precipitant (containing an internal standard). After protein precipitation of all the above samples, centrifuge the samples to collect the supernatants, dilute the supernatants with water (if necessary) and inject them for analysis. At the same time, measure the positive controls, including the high-binding compounds Sunitinib and chloroquine and the low-binding compound celecoxib. Establish an LC-MS/MS method for determining compound concentrations, and calibrate the peak area ratio of analyte/internal standard (Analyte/AIS) in the measured sample by the dilution factor to take it as an alternative concentration for the sample for data processing. The binding rate (Fh) of a compound in melanin was calculated as: […]
Ctest was the concentration of the compound in the melanin-incubated sample or the peak area ratio of the test compound to the internal standard. Ccontrol was the concentration of the compound in the blank control sample or the peak area ratio of the test compound to the internal standard. Percentage of free drug (Fu %)=100−Fb The binding rates of the compounds of the present invention to melanin are shown in the table below: […]

In the next series the target is EGFR (Homo sapiens (Human), UniProt P00533). The series can be described thus: Kinase inhibition, Mobility Shift Assay (EGFR). The series is classed as biochemical. As for the experimental part:
as §1, §2, §3, §4

The target in a further series is FLT4 (VEGFR3) (Homo sapiens (Human), UniProt P35916). Kind of series: Kinase inhibition, Mobility Shift Assay (VEGFR3). It is filed as biochemical. How it is done:
as §1, §2, §3, §4

Sequence of EGFR (P00533 25-1210): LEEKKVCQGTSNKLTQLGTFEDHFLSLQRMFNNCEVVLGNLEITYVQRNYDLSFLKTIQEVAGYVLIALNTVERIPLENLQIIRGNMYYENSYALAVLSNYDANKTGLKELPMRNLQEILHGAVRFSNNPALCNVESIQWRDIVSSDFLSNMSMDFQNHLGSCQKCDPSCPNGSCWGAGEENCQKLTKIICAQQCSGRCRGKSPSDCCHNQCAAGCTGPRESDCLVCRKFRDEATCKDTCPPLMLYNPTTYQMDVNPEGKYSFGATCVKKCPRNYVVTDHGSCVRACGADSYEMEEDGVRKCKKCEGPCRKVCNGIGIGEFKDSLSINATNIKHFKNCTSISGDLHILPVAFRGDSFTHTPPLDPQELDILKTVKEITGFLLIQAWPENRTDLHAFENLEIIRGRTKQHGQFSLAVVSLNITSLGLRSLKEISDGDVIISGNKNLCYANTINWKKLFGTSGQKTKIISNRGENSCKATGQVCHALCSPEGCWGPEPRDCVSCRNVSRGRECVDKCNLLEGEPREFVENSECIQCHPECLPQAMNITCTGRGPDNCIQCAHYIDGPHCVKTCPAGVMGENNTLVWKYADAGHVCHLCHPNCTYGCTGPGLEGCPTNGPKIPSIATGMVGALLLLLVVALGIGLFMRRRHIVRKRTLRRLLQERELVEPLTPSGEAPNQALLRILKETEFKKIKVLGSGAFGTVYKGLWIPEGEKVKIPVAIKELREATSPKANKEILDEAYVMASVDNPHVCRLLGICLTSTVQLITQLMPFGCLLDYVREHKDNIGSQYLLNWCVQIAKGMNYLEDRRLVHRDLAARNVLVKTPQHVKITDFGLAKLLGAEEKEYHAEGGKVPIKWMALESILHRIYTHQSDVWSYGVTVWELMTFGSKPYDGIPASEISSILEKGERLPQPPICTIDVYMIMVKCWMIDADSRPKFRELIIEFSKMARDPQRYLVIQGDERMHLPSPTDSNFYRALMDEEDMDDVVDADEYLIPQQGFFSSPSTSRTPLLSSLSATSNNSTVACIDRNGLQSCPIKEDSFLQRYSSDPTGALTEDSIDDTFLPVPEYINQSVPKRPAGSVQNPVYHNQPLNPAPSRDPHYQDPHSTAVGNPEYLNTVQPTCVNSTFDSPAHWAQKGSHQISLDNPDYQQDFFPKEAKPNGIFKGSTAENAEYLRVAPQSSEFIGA
Sequence of FLT1 (VEGFR1) (P17948 27-1338): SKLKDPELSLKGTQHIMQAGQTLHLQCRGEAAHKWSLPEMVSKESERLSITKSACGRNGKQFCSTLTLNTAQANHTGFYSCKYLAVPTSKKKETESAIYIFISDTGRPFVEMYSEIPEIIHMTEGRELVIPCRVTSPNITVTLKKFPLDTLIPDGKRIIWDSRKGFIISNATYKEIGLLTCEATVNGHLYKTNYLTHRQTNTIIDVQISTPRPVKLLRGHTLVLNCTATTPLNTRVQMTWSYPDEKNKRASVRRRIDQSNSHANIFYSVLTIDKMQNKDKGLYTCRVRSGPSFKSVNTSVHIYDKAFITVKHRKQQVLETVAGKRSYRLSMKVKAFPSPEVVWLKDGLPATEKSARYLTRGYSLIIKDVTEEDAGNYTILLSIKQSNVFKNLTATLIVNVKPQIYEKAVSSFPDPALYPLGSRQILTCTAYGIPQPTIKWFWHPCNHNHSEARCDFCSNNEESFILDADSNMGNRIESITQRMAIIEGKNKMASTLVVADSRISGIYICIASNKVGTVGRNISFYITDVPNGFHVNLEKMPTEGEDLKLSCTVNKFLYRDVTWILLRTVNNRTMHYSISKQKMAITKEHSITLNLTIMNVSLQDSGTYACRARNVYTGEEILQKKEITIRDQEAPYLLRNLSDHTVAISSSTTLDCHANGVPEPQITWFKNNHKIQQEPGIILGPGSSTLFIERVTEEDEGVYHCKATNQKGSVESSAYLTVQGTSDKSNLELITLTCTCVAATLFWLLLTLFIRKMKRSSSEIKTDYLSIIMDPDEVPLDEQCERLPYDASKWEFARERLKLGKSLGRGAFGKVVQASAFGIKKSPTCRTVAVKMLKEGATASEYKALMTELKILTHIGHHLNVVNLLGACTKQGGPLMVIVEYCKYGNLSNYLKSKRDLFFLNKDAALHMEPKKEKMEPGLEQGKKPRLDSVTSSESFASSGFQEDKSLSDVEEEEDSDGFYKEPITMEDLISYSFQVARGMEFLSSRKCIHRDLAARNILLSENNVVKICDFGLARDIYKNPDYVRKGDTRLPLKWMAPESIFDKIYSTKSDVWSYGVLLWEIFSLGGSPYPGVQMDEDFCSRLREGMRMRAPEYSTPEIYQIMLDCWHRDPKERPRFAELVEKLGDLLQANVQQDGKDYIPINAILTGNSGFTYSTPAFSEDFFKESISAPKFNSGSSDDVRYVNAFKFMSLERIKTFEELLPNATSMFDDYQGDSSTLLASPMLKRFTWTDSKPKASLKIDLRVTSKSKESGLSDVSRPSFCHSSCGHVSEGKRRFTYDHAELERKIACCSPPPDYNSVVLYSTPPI
Sequence of KDR (VEGFR2) (P35968 790-1356): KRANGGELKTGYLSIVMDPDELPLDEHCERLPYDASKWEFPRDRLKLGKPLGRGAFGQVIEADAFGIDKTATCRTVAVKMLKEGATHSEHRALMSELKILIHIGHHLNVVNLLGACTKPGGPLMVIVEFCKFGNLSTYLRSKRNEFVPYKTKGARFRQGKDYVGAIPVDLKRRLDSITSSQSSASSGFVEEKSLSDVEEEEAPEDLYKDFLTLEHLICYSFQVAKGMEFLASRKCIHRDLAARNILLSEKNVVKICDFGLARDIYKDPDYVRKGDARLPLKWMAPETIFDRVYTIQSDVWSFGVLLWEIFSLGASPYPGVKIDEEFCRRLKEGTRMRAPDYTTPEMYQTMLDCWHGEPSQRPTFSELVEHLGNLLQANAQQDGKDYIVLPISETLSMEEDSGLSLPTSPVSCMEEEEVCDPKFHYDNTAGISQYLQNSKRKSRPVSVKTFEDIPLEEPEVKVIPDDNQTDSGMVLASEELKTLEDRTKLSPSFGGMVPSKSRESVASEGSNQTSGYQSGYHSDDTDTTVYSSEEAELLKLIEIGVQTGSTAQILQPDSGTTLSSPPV
Sequence of FLT4 (VEGFR3) (P35916 25-1363): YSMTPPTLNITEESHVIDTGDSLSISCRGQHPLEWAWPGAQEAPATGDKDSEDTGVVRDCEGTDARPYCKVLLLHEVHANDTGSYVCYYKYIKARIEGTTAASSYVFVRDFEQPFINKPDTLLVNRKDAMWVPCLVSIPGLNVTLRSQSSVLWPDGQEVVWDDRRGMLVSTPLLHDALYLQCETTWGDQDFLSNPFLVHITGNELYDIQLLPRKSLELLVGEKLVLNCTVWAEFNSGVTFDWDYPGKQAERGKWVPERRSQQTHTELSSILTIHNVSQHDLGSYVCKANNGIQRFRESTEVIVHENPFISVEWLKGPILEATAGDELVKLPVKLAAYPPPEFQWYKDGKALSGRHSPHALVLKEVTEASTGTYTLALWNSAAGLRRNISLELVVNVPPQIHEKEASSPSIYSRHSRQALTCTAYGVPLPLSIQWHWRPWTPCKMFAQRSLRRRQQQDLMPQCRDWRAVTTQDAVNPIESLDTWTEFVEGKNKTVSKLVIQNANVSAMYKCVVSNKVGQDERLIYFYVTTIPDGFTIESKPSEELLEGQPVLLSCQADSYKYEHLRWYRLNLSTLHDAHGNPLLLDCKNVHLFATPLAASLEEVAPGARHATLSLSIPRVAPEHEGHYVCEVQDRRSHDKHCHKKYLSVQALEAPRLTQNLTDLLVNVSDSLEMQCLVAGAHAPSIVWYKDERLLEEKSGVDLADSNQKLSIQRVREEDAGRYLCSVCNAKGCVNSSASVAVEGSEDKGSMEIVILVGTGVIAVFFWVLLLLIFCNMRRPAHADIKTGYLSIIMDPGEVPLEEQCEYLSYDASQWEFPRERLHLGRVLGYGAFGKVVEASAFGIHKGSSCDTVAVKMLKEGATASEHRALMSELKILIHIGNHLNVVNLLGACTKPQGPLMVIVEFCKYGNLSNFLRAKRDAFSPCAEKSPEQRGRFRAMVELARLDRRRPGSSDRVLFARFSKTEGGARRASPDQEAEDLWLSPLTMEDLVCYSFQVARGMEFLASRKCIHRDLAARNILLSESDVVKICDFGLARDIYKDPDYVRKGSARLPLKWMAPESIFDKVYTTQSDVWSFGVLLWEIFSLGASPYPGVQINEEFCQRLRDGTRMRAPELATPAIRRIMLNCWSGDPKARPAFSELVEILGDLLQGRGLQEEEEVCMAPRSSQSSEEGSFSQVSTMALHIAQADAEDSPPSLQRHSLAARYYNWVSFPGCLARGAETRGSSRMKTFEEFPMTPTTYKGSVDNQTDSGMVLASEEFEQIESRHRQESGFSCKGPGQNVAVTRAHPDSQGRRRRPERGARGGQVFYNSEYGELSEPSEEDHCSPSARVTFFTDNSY

For orientation: IC50 means the concentration that inhibits the measured activity by half. Regarding `CNC(=O)c1ccccc1Sc1ccc2c(/C=C/c3ccc(OCC4CCCN4C)cn3)n[nH]c2c1` (stereo not drawn) [Compound I-2, N-methyl-2-({3-[(E)-2-{5-[(1-methylpyrrolidin-2-yl)methoxy]pyridin-2-yl}vinyl]-1H-indazol-6-yl}thio)benzamide], the 50% inhibitory concentration (IC50) at FLT1 (VEGFR1) and on KDR (VEGFR2) was at most 1 nM throughout. In the series on melanin, the fraction unbound at 2 h, 2 μM is 0.01 to 0.05.

As to `O=C(NC1CC1)c1ccc(F)cc1Sc1ccc2c(/C=C/c3ccc(CN4CCCC4)cn3)n[nH]c2c1` [Compound I-79, N-cyclopropyl-4-fluoro-2-({3-[(E)-2-{5-[(pyrrolidin-1-yl)methyl]pyridin-2-yl}vinyl]-1H-indazol-6-yl}thio)benzamide], the IC50 at KDR (VEGFR2) was at most 1 nM; on EGFR it was 6000 to 60000 nM. Moreover, the fraction unbound at 2 h, 2 μM in the series on melanin was above 0.05.

`CCN(CC)Cc1ccc(/C=C/c2n[nH]c3cc(Sc4c(F)cccc4C(=O)NC)ccc23)nc1` [Compound I-91, 2-({3-[(E)-2-{5-[(diethylamino)methyl]pyridin-2-yl}vinyl]-1H-indazol-6-yl}thio)-3-fluoro-N-methylbenzamide]: the values for the IC50 at KDR (VEGFR2) and at EGFR were 1 to 10 nM and 6000 to 60000 nM, respectively. The fraction unbound at 2 h, 2 μM in the series with melanin lay in the range of 0.01 to 0.05.

Turning to `O=C(NC1CC1)c1ccccc1Nc1ccc2c(/C=C/c3ccc(CN4CCCC4)cn3)n[nH]c2c1` [Compound I-82, N-cyclopropyl-2-({3-[(E)-2-{5-[(pyrrolidin-1-yl)methyl]pyridin-2-yl}vinyl]-1H-indazol-6-yl}amino)benzamide], the IC50 at KDR (VEGFR2) was at most 1 nM; at EGFR, 6000 to 60000 nM. Moreover, in the series on melanin, the fraction unbound at 2 h, 2 μM lay within 0.01 to 0.05.

On to `CCN(CC)Cc1ccc(/C=C/c2n[nH]c3cc(Sc4ccccc4C(=O)NCC(F)F)ccc23)nc1` [Compound I-99, 2-({3-[(E)-2-{5-[(diethylamino)methyl]pyridin-2-yl}vinyl]-1H-indazol-6-yl}thio)-N-(2,2-difluoroethyl)benzamide], for which the IC50 lay within 1 to 10 nM on KDR (VEGFR2) and 6000 to 60000 nM at EGFR. For the same compound, in the series with melanin, the fraction unbound at 2 h, 2 μM was above 0.05.

For `CNC(=O)c1ccccc1Sc1ccc2c(/C=C/c3ccc(O)cn3)n[nH]c2c1` [Compound I-10, 2-({3-[(E)-2-(5-hydroxypyridin-2-yl)vinyl]-1H-indazol-6-yl}thio)-N-methylbenzamide], the IC50 on FLT1 (VEGFR1) was 1 to 10 nM; at KDR (VEGFR2), 1 to 10 nM; on FLT4 (VEGFR3) it was at most 1 nM; on EGFR it was 6000 to 60000 nM.

In the case of `CNC(=O)c1ccccc1Sc1ccc2c(C#Cc3cccc(OCCN4CCCC4)n3)n[nH]c2c1` [Compound I-24, N-methyl-2-{[3-(2-{6-[2-(pyrrolidin-1-yl)ethoxy]pyridin-2-yl}ethynyl)-1H-indazol-6-yl]thio}benzamide], the IC50 on FLT1 (VEGFR1) was in the range of 10 to 100 nM; on KDR (VEGFR2), 10 to 100 nM; on FLT4 (VEGFR3), 10 to 100 nM; at EGFR, 6000 to 60000 nM.

Turning to `CCN(CC)Cc1ccc(/C=C/c2n[nH]c3cc(Sc4ccccc4C(=O)NCCF)ccc23)nc1` [Compound I-98, 2-({3-[(E)-2-{5-(diethylamino)methyl]pyridin-2-ylvinyl]-1H-indazol-6-yl}thio)-N-(2-fluoroethyl)benzamide], the concentration for half-maximal inhibition (IC50) lay in the range of 1 to 10 nM at KDR (VEGFR2) and 6000 to 60000 nM at EGFR. Further, the fraction unbound at 2 h, 2 μM in the series on melanin was above 0.05.

As for `CNC(=O)c1ccccc1Sc1ccc2c(Nc3ccc(OCCN4CCCC4)cn3)n[nH]c2c1` [Compound I-30, N-methyl-2-{[3-({5-[2-(pyrrolidin-1-yl)ethoxy]pyridin-2-yl}amino)-1H-indazol-6-yl]thio}benzamide], the IC50 on FLT1 (VEGFR1) was above 100 nM; at KDR (VEGFR2), above 100 nM; at FLT4 (VEGFR3), above 100 nM; at EGFR, 6000 to 60000 nM.

For the compound `CNC(=O)c1ccccc1Sc1ccc2c(/C=C/c3ccc(OC[C@H]4CCN(C)C4)cn3)n[nH]c2c1` [Compound I-37, N-methyl-2-({3-[(E)-2-(5-{[(3S)-1-methylpyrrolidin-3-yl]methoxy}pyridin-2-yl)vinyl]-1H-indazol-6-yl}thio)benzamide], the IC50 on FLT1 (VEGFR1) and on KDR (VEGFR2) was at most 1 nM throughout. Besides, in the series on melanin, the fraction unbound at 2 h, 2 μM lay in the range of 0.01 to 0.05.

As to `CCN(C)CCOc1ccc(/C=C/c2n[nH]c3cc(Sc4ccccc4C(=O)NC4CC4)ccc23)nc1` [Compound I-52, N-cyclopropyl-2-({3-[(E)-2-{5-[2-(diethylamino)ethoxy]pyridin-2-yl}vinyl]-1H-indazol-6-yl}thio)benzoyl], the fraction unbound at 2 h, 2 μM in the series on melanin is above 0.05.

Consider `CN(C)CCOc1ccc(/C=C/c2n[nH]c3cc(Sc4ccccc4C(=O)NC4CC4)ccc23)nc1` [Compound I-51, N-cyclopropyl-2-({3-[(E)-2-{5-[2-(dimethylamino)ethoxy]pyridin-2-yl}vinyl]-1H-indazol-6-yl}thio)benzamide], for which, in the series on melanin, the fraction unbound at 2 h, 2 μM was in the range of 0.01 to 0.05.

With `CNC(=O)c1cccc(F)c1Sc1ccc2c(/C=C/c3cnn(CCCN4CCCC4)c3)n[nH]c2c1` [Compound I-76, 3-fluoro-N-methyl-2-({3-[(E)-2-{1-[3-(pyrrolidin-1-yl)propyl]-1H-pyrazol-4-yl}vinyl]-1H-indazol-6-yl}thio)benzamide], the concentration for half-maximal inhibition (IC50) is 1 to 10 nM on KDR (VEGFR2) and 600 to 6000 nM on EGFR. Further, the fraction unbound at 2 h, 2 μM in the series with melanin was above 0.05.

Take `CCNC(=O)c1ccccc1Sc1ccc2c(/C=C/c3ccc(CN4CCCC4)cn3)n[nH]c2c1` [Compound I-73, N-ethyl-2-({3-[(E)-2-{5-[(pyrrolidin-1-yl)methyl]pyridin-2-yl}vinyl]-1H-indazol-6-yl}thio)benzamide]: the results for the concentration for half-maximal inhibition (IC50) at KDR (VEGFR2) and on EGFR were 1 to 10 nM and 6000 to 60000 nM, respectively. Moreover, in the series with melanin, the fraction unbound at 2 h, 2 μM lay in the range of 0.01 to 0.05.

With `O=C(NC1CC1)c1ccccc1Sc1ccc2c(/C=C/c3ccc(OCCN4CCCCC4)cn3)n[nH]c2c1` [Compound I-53, N-cyclopropyl-2-({3-[(E)-2-{5-[2-(piperidin-1-yl)ethoxy]pyridin-2-yl}vinyl]-1H-indazol-6-yl}thio)benzamide], the fraction unbound at 2 h, 2 μM with melanin was above 0.05.

As for `CNC(=O)c1ccc(F)cc1Sc1ccc2c(/C=C/c3ccc(CN4CCCC4)cn3)n[nH]c2c1` [Compound I-94, 4-fluoro-N-methyl-2-({3-[(E)-2-{5-[(pyrrolidin-1-yl)methyl]pyridin-2-yl}vinyl]-1H-indazol-6-yl}thio)benzamide], the IC50 is 1 to 10 nM on KDR (VEGFR2) and 6000 to 60000 nM on EGFR. Also, in the series on melanin, the fraction unbound at 2 h, 2 μM was 0.01 to 0.05.

As to `CNC(=O)c1ccccc1Sc1ccc2c(/C=C/c3ccc(OCC4CCNC4)cn3)n[nH]c2c1` (stereo not drawn) [Compound I-7], the IC50 at FLT1 (VEGFR1) was at most 1 nM. In addition, the fraction unbound at 2 h, 2 μM in the series with melanin is above 0.05.

Take `CCN(CC)Cc1ccc(/C=C/c2n[nH]c3cc(Sc4ccc(F)cc4C(=O)NC)ccc23)nc1` [Compound I-93, 2-({3-[(E)-2-{5-[(diethylamino)methyl]pyridin-2-yl}vinyl]-1H-indazol-6-yl}thio)-5-fluoro-N-methylbenzamide]: the IC50 lay within 1 to 10 nM at KDR (VEGFR2) and 6000 to 60000 nM at EGFR. The fraction unbound at 2 h, 2 μM in the series with melanin was in the range of 0.01 to 0.05.

Consider `O=C(NC1CC1)c1cccc(F)c1Sc1ccc2c(/C=C/c3cnn(CCCN4CCCC4)c3)n[nH]c2c1` [Compound I-44, N-cyclopropyl-3-fluoro-2-({3-[(E)-2-{1-[3-(pyrrolidin-1-yl)propyl]-1H-pyrazol-4-yl}vinyl]-1H-indazol-6-yl}thio)benzamide], for which the fraction unbound at 2 h, 2 μM in the series on melanin is 0.01 to 0.05.
